What was measured:
[1] = system: normal primary NK cells, pool 1 (3 donors) (IL-2 2.5 ng/mL); assay: percent inhibition of viability; higher = more inhibition; conditions: 72 h
[2] = system: normal primary NK cells, pool 3 (3 donors) (IL-2 2.5 ng/mL); assay: as above; conditions: 72 h
DERL-7 (IL-2 2.5 ng/mL) [3] = assay: as above; conditions: 72 h
NK-92 (IL-2 2.5 ng/mL) [4] = assay: as above; conditions: 72 h
YT (IL-2 2.5 ng/mL) [5] = assay: as above; conditions: 72 h
[6] = system: normal primary NK cells, pool 2 (3 donors) (IL-2 2.5 ng/mL); assay: as above; conditions: 72 h
IMC-1 (IL-2 20 ng/mL) [7] = assay: as above; conditions: 72 h
SNK-6 (IL-2 2.5 ng/mL) [8] = assay: as above; conditions: 72 h
[9] = system: normal primary NK cells, pool 1 (3 donors), resting (IL-2 0 ng/mL); assay: as above; conditions: 72 h
KAI3 (IL-2 2.5 ng/mL) [10] = assay: as above; conditions: 72 h
NK-YS (IL-2 2.5 ng/mL) [11] = assay: as above; conditions: 72 h
NKL (IL-2 2.5 ng/mL) [12] = assay: as above; conditions: 72 h
KHYG-1 (IL-2 2.5 ng/mL) [13] = assay: as above; conditions: 72 h
[14] = system: normal NK cells expanded with K562-aAPC; assay: as above; conditions: 72 h, IL-2 2.5 ng/mL
Description: (§1)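 Drug sensitivity and resistance testing on K562-aAPC-expanded normal NK cells: 5 concentrations (10-fold steps over a 10,000-fold range), 72 h at 37 °C, viability by CellTiter-Glo normalised to DMSO and benzethonium chloride controls; DSS from the fitted curve.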

[15] = system: normal NK cells expanded with K562-aAPC; assay: drug sensitivity score (DSS) (DSS units); higher = more sensitive; extreme values may be limits of the assay; conditions: 72 h; IL-2 2.5 ng/mL
Description: as §1

[16] = system: normal primary NK cells, pool 1 (3 donors) (IL-2 2.5 ng/mL); assay: as above; conditions: 72 h
[17] = system: normal primary NK cells, pool 3 (3 donors) (IL-2 2.5 ng/mL); assay: as above; conditions: 72 h
DERL-7 (IL-2 2.5 ng/mL) [18] = assay: as above; conditions: 72 h
NK-92 (IL-2 2.5 ng/mL) [19] = assay: as above; conditions: 72 h
YT (IL-2 2.5 ng/mL) [20] = assay: as above; conditions: 72 h
[21] = system: normal primary NK cells, pool 2 (3 donors) (IL-2 2.5 ng/mL); assay: as above; conditions: 72 h
IMC-1 (IL-2 20 ng/mL) [22] = assay: as above; conditions: 72 h
SNK-6 (IL-2 2.5 ng/mL) [23] = assay: as above; conditions: 72 h
[24] = system: normal primary NK cells, pool 1 (3 donors), resting (IL-2 0 ng/mL); assay: as above; conditions: 72 h
KAI3 (IL-2 2.5 ng/mL) [25] = assay: as above; conditions: 72 h
NK-YS (IL-2 2.5 ng/mL) [26] = assay: as above; conditions: 72 h
NKL (IL-2 2.5 ng/mL) [27] = assay: as above; conditions: 72 h
KHYG-1 (IL-2 2.5 ng/mL) [28] = assay: as above; conditions: 72 h

C[C@H](Nc1ncnc2nc[nH]c12)c1cc2cccc(Cl)c2c(=O)n1-c1ccccc1 [Duvelisib] (max concentration tested 500 nM)
percent inhibition of viability [%]
Conditions | 0.05 nM | 0.5 nM | 5 nM | 50 nM | 500 nM
DERL-7 (IL-2 2.5 ng/mL) [3] | -0.14 | 9.15 | 10.2 | 25.2 | 56.5
IMC-1 (IL-2 20 ng/mL) [7] | 0.88 | -0.84 | -0.96 | -0.33 | 6.98
KAI3 (IL-2 2.5 ng/mL) [10] | -4.68 | 0.86 | 7.47 | 8.25 | 24.3
KHYG-1 (IL-2 2.5 ng/mL) [13] | 1.1 | 3.56 | 6.06 | 5.02 | 18.1
NK-92 (IL-2 2.5 ng/mL) [4] | -9.06 | -4.46 | 22.4 | 26.1 | 42.3
NK-YS (IL-2 2.5 ng/mL) [11] | -2.69 | -4.82 | 0.82 | -1.23 | 13
NKL (IL-2 2.5 ng/mL) [12] | -10.5 | 7.21 | 0.54 | 24.6 | 17.3
SNK-6 (IL-2 2.5 ng/mL) [8] | -0.58 | 4.35 | 2.29 | 9.46 | 32.8
YT (IL-2 2.5 ng/mL) [5] | 0.13 | 2.78 | 3.52 | 2.82 | 12.4
[1] | -0.52 | -4.76 | 3.49 | 6.72 | 18.7
[2] | -13.6 | -1.02 | -2.45 | -0.85 | 21.8
[6] | -6.04 | 4.46 | 6.08 | 11.3 | 26.1
[9] | 0.72 | -3.61 | 2.62 | -2.38 | 3.26
[14] | -2.59 | 4.75 | 5.15 | 19.8 | 45.7

Conditions | drug sensitivity score
DERL-7 (IL-2 2.5 ng/mL) [18] | 6.16
IMC-1 (IL-2 20 ng/mL) [22] | 0
KAI3 (IL-2 2.5 ng/mL) [25] | 1.4
KHYG-1 (IL-2 2.5 ng/mL) [28] | 0.45
NK-92 (IL-2 2.5 ng/mL) [19] | 7.08
NK-YS (IL-2 2.5 ng/mL) [26] | 0.07
NKL (IL-2 2.5 ng/mL) [27] | 3.86
SNK-6 (IL-2 2.5 ng/mL) [23] | 2.8
YT (IL-2 2.5 ng/mL) [20] | 0.15
[15] | 4.43
[16] | 0.83
[17] | 0.66
[21] | 1.9
[24] | 0

COC(=O)N[C@@H](C)CNc1nccc(-c2cn(C(C)C)nc2-c2cc(Cl)cc(NS(C)(=O)=O)c2F)n1 [Encorafenib] (max concentration tested 1000 nM)
percent inhibition of viability [%]
Conditions | 0.1 nM | 1 nM | 10 nM | 100 nM | 1000 nM
DERL-7 (IL-2 2.5 ng/mL) [3] | -4.45 | 1.39 | -5.31 | -20.4 | 2.89
IMC-1 (IL-2 20 ng/mL) [7] | -3.38 | -1.85 | -0.96 | 1.07 | 11.3
KAI3 (IL-2 2.5 ng/mL) [10] | -3.35 | -4.73 | -1.44 | -5.19 | 35.6
KHYG-1 (IL-2 2.5 ng/mL) [13] | 1.4 | 3.41 | 40.8 | 96.3 | 36
NK-92 (IL-2 2.5 ng/mL) [4] | 3.73 | -5.79 | 17.9 | 6.05 | 10.7
NK-YS (IL-2 2.5 ng/mL) [11] | 0.75 | 0.97 | 2.64 | 4.64 | 15.7
NKL (IL-2 2.5 ng/mL) [12] | -6.88 | -1.53 | -12.4 | -13 | 2.6
SNK-6 (IL-2 2.5 ng/mL) [8] | -4.51 | -10 | 13.8 | 2.67 | 3.42
YT (IL-2 2.5 ng/mL) [5] | 4.02 | 1.12 | 4.21 | 0.09 | 19.3
[1] | -4.01 | -8.97 | -7.94 | -18.4 | -8.33
[2] | -8.13 | -6.38 | -2.7 | -12.9 | -4.56
[6] | -12.3 | -6.1 | -1.97 | -5.14 | -1.61
[9] | 6.42 | -18.3 | -10.7 | -27.7 | 1.26
[14] | -0.52 | -2.88 | -3.45 | 0.31 | 8.45

Conditions | drug sensitivity score
DERL-7 (IL-2 2.5 ng/mL) [18] | 0
IMC-1 (IL-2 20 ng/mL) [22] | 0.04
KAI3 (IL-2 2.5 ng/mL) [25] | 1.37
KHYG-1 (IL-2 2.5 ng/mL) [28] | 16.3
NK-92 (IL-2 2.5 ng/mL) [19] | 0.17
NK-YS (IL-2 2.5 ng/mL) [26] | 0.52
NKL (IL-2 2.5 ng/mL) [27] | 0
SNK-6 (IL-2 2.5 ng/mL) [23] | 0
YT (IL-2 2.5 ng/mL) [20] | 0.55
[15] | 0
[16] | 0
[17] | 0
[21] | 0
[24] | 0
